Experimental data as given in ChEMBL document CHEMBL1141517 (Bioorg Med Chem Lett, 2008).

Key:
Oryctolagus cuniculus = species on record: Oryctolagus cuniculus; experiment: Ratio of Km of fructose bis-phosphate for rabbit Fba to Ki of compound for rabbit Fba
Saccharomyces cerevisiae = experiment: Ratio of Km of fructose bis-phosphate for yeast Fba to Ki of compound for yeast Fba
[1] = Inhibition of rabbit muscle Fba; parameters: species or system Oryctolagus cuniculus
[2] = Inhibition of Helicobacter pyroli recombinant Fba expressed in Escherichia coli JM 109; parameters: species or system Helicobacter pylori
[3] = Inhibition of yeast Fba; parameters: species or system Saccharomyces cerevisiae
Helicobacter pylori = experiment: Ratio of Km of fructose bis-phosphate for Helicobacter pyroli recombinant Fba to Ki of compound for Helicobacter pyroli recombinant Fba

| Compound | Ratio (Oryctolagus cuniculus) | Ratio (Saccharomyces cerevisiae) | Ki [1] | Ki [2] | Ki [3] | Ratio (Helicobacter pylori) |
| --- | --- | --- | --- | --- | --- | --- |
| O=P(O)(O)OC[C@@H](O)[C@@H](O)[C@H](O)[C@H](O)COP(=O)(O)O | 2.74 | 0.5 | 7300 nM | 73 nM | 400 nM | 0.27 |
| O=P(O)(O)OC[C@@H](O)[C@@H](O)[C@H](O)[C@@H](O)COP(=O)(O)O | 0.2 | 3.33 | 100000 nM | 170 nM | 60 nM | 0.12 |
